Data published in EPA's ToxValDB 9.5 (doi:10.2903/j.efsa.2011.2091).
In brackets after ≈: the same amount, converted by molar mass.

Legend:
Colinus virginianus = conditions: acute, oral, mortality; for LC50: diet
Apis mellifera = conditions: acute, mortality
Landoltia sp. = conditions: acute; duration: 14 days; frond number
Lepomis macrochirus = conditions: acute; duration: 96 hours; mortality
Oncorhynchus mykiss = conditions: chronic/long-term; duration: 21 days; mortality
Anas platyrhynchos = conditions: reproductive; mortality
Daphnia magna = conditions: chronic/long-term; duration: 21 days; reproduction
Oryctolagus sp. = conditions: chronic; mortality
Bibionidae = conditions: chronic/long-term; duration: 28 days; development

Compound | LC50 (Colinus virginianus) [mg/kg-day] | LD50 (Colinus virginianus) [mg/kg-day] | LD50 (Apis mellifera; dermal) [µg/piece] | LD50 (Apis mellifera; oral, unspecified) [µg/piece] | LC50 (Landoltia sp.) [µg/mL] | LC50 (Lepomis macrochirus) [µg/mL] | NOEC (Oncorhynchus mykiss) [mg/L] | NOEC (Anas platyrhynchos) [mg/kg-day] | LC50 (Tagia sp.; acute, duration: 14 days, mortality) [mg/kg] | NOEC (Tagia sp.; chronic/long-term, duration: 56 days) [mg/kg] | NOEC (Daphnia magna) [mg/L] | NOAEL (Rattus norvegicus; chronic, duration: 2 years) [mg/kg-day] | NOAEL (Rattus norvegicus; subchronic, oral) [mg/kg-day] | NOEL (Oryctolagus sp.) [mg/kg-day] | LD50 (Rattus norvegicus; acute, oral, mortality) [mg/kg-day] | NOEC (Bibionidae) [mg/L]
Nc1c(Cl)c(F)nc(OCC(=O)O)c1Cl [Fluroxypyr] | > 757 | > 2000 | > 180 | 37.1 | 12.3 (≈ 48.2 µM) | 14.3 (≈ 56.1 µM) | 100 | 40.1 | 64.8 | 3.05 | 56 | 80 | 80 | 100 | – | –
CCCCCCC(C)OC(=O)COc1nc(F)c(Cl)c(N)c1Cl (centres undefined) [Fluroxypyr-meptyl] | > 1040 | > 2000 | – | – | – | – | – | 57.8 | – | – | – | – | – | – | > 2000 | 0.13
